Residue numbers refer to the chain shown, from its start.
Experiments:
Assay in all cases: KINOMEscan kinase binding assay (Eurofins/DiscoveRx), % Ctrl
kinases [1] = target: T1, kinases (Homo sapiens, UniProt P00519, M351T)
T1 construct: purchased Eurofins/DiscoveRx; host or cells: E. coli BL21-derived host (T7 phage display) for most kinases; HEK-293 for the rest
Experimental: (§1) Kinase binding assays were performed at Eurofins/DiscoveRx using the general KINOMEscan Protocol (Fabian, M. A. et al., “A small molecule-kinase interaction map for clinical kinase inhibitors,” Nat. Biotechnol. 2005, 23(3):329-36). For most assays, kinase-tagged T7 phage strains were prepared in an E. coli host derived from the BL21 strain. E. coli were grown to log-phase and infected with T7 phage and incubated with shaking at 32° C. until lysis. The lysates were centrifuged and filtered to remove cell debris. The remaining kinases were produced in HEK-293 cells and subsequently tagged with DNA for qPCR detection. Streptavidin-coated magnetic beads were treated with biotinylated small molecule ligands for 30 minutes at room temperature to generate affinity resins for kinase assays. The liganded beads were blocked with excess biotin and washed with blocking buffer (SeaBlock (Pierce), 1% BSA, 0.05% Tween 20, 1 mM DTT) to remove unbound ligand and to reduce nonspecific binding. Binding reactions were assembled by combining kinases, liganded affinity beads, and test compounds in 1×binding buffer (20% SeaBlock, 0.17×PBS, 0.05% Tween 20, 6 mM DTT). All reactions were performed in polystyrene 96-well plates in a final volume of 0.135 mL. The assay plates were incubated at room temperature with shaking for 1 hour and the affinity beads were washed with washbuffer (1×PBS, 0.05% Tween 20). The beads were then re-suspended in elution buffer (1× PBS, 0.05% Tween 20, 0.5 μM non-biotinylated affinity ligand) and incubated at room temperature with shaking for 30 minutes. The kinase concentration in the eluates was measured by qPCR. Results for compounds tested in this assay at a given concentration are reported as “% Ctrl”, where lower numbers indicate stronger binding in the matrix.
(§2) (test compound signal-positive control signal)/(negative control signal-positive control signal) X100

kinases [2] = target: T2, kinases (Homo sapiens, UniProt P10721, T670I/V559D)
T2 construct: purchased Eurofins/DiscoveRx; host or cells: E. coli BL21-derived host (T7 phage display) for most kinases; HEK-293 for the rest
T2 sequence (P10721 26-976 V559D/T670I): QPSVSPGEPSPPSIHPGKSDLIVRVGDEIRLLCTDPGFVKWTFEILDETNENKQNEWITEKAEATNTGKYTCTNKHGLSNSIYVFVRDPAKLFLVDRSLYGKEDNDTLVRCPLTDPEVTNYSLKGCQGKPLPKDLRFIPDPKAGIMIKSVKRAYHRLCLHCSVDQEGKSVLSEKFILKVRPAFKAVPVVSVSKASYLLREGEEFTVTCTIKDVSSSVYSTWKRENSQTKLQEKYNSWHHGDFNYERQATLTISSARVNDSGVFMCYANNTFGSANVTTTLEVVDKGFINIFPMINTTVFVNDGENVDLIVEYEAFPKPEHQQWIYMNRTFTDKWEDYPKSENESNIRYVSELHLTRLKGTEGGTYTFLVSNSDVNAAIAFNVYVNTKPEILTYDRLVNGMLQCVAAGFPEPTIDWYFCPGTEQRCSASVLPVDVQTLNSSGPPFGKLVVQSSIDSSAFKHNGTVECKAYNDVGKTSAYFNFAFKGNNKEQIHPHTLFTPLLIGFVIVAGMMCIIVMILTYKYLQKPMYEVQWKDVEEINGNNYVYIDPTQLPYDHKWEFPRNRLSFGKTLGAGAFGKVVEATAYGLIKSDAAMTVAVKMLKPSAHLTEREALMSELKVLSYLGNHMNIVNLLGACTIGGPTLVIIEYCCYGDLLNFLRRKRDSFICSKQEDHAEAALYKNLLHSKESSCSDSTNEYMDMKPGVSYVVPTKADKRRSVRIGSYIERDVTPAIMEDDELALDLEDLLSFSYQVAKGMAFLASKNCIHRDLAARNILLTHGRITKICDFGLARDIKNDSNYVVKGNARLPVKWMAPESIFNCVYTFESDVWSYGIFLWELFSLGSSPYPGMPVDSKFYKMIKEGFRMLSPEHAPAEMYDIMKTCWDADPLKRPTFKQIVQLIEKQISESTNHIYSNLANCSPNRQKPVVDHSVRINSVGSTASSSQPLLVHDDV
Experimental: as §1, §2

kinases [3] = target: T3, kinases (Homo sapiens, UniProt P36888, D835Y)
T3 construct: purchased Eurofins/DiscoveRx; host or cells: E. coli BL21-derived host (T7 phage display) for most kinases; HEK-293 for the rest
T3 sequence (P36888 27-993 D835Y): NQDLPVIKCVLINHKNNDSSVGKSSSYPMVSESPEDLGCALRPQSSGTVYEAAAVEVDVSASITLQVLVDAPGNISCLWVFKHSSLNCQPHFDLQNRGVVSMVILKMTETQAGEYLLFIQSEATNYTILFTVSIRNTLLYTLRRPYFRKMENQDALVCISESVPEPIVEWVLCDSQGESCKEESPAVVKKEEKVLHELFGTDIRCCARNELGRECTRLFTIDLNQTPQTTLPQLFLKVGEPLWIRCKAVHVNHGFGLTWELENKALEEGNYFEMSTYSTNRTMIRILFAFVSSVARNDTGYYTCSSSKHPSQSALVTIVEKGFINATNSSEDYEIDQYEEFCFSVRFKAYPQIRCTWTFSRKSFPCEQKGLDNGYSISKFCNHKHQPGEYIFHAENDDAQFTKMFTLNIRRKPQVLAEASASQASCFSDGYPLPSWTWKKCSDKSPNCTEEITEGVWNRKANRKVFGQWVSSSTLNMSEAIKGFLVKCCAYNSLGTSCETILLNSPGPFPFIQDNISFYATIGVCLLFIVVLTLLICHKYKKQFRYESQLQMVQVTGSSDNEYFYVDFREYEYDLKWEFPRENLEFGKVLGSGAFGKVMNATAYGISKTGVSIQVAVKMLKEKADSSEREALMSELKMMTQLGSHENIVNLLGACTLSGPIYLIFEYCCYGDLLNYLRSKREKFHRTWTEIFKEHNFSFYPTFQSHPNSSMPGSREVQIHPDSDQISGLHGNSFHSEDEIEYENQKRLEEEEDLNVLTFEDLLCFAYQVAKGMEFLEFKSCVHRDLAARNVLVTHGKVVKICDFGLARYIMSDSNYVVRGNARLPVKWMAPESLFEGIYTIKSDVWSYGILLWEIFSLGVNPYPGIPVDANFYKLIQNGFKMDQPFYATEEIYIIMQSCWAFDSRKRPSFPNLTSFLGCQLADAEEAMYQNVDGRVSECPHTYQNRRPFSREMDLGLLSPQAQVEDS
Experimental: as §1, §2

kinases [4] = target: T4, kinases (Homo sapiens, UniProt P07949)
T4 construct: purchased Eurofins/DiscoveRx; host or cells: E. coli BL21-derived host (T7 phage display) for most kinases; HEK-293 for the rest
T4 sequence (P07949 29-1114): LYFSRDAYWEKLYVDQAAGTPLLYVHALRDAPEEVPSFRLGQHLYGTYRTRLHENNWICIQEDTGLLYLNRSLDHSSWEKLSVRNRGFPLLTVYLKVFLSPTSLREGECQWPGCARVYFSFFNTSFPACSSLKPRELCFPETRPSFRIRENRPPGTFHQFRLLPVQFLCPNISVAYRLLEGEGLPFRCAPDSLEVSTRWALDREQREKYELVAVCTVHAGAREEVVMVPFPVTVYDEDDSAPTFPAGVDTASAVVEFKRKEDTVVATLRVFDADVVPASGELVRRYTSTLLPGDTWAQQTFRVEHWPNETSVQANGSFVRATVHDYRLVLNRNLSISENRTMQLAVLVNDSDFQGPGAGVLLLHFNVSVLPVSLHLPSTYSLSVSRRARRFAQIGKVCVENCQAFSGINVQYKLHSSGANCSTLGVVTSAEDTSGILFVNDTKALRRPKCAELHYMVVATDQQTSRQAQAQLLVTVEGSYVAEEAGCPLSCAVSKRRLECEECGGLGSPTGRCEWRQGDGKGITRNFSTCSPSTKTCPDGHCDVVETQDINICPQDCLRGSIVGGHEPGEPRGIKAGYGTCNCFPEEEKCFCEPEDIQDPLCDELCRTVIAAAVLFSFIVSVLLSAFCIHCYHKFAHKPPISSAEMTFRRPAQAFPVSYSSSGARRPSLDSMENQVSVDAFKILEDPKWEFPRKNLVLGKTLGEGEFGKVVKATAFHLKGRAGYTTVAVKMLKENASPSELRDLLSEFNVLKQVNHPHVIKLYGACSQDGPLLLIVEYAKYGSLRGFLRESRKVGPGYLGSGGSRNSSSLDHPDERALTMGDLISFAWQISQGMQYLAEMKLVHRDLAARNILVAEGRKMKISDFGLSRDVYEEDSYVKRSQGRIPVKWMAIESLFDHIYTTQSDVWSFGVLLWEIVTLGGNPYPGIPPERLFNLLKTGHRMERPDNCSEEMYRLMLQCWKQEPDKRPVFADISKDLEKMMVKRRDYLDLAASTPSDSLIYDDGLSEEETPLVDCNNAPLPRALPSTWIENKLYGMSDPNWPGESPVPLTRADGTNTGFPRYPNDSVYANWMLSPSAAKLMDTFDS
Experimental: as §1, §2

kinases [5] = target: T5, kinases (Homo sapiens, UniProt P00533, L858R/T790M)
T5 construct: purchased Eurofins/DiscoveRx; host or cells: E. coli BL21-derived host (T7 phage display) for most kinases; HEK-293 for the rest
Experimental: as §1, §2

kinases [6] = target: T6, kinases (Homo sapiens, UniProt P36888, K663Q)
T6 construct: purchased Eurofins/DiscoveRx; host or cells: E. coli BL21-derived host (T7 phage display) for most kinases; HEK-293 for the rest
T6 sequence (P36888 27-993 K663Q): T3 sequence (P36888 27-993 D835Y) with K637Q, Y809D
Experimental: as §1, §2

[7] = target ABL1(M351T)-phosphorylated; 1 μM
[8] = target EGFR(L858R, T790M); 1 μM
[9] = 1 μM; ABL1(M351T)-phosphorylated

| Structure (SMILES) | % Ctrl, ABL1(M351T)-phosphorylated (kinases [1]; [9]) [% Ctrl] | % Ctrl, KIT(V559D, T670I) (kinases [2]; 1 μM; KIT(V559D, T670I)) [% Ctrl] | % Ctrl, FLT3(D835Y) (kinases [3]; 1 μM; FLT3(D835Y)) [% Ctrl] | % Ctrl, RET (kinases [4]; 1 μM; RET) [% Ctrl] | % Ctrl, EGFR(L858R, T790M) (kinases [5]; 1 μM; EGFR(L858R, T790M)) [% Ctrl] | % Ctrl, FLT3(K663Q) (kinases [6]; 1 μM; FLT3(K663Q)) [% Ctrl] | also measured |
| --- | --- | --- | --- | --- | --- | --- | --- |
| Cc1cc2c([nH]1)/C=C1\C(=O)Nc3ccc(cc31)-c1c(noc1C)CNCCN(C)C2=O [Ex. 139, [3a(4)Z]-6,9,16-trimethyl-10,11,12,13-tetrahydro-2H-1,17-(ethanediylidene)[1,2]oxazolo[4,3-m]dipyrrolo[3,2-f:3′,4′-i][1,4]diazacyclopentadecine-3,8(5H,9H)-dione] | – | – | – | – | – | – | % Ctrl, ABL1(M351T)-phosphorylated (kinases [1]; [7]): 7.3 % Ctrl; % Ctrl, KIT(V559D, T670I) (kinases [2]; target KIT(V559D, T670I); 1 μM): 69 % Ctrl; % Ctrl, FLT3(D835Y) (kinases [3]; target FLT3(D835Y); 1 μM): 2.5 % Ctrl; % Ctrl, RET (kinases [4]; target RET; 1 μM): 42 % Ctrl; % Ctrl, EGFR(L858R, T790M) (kinases [5]; [8]): 17 % Ctrl; % Ctrl, FLT3(K663Q) (kinases [6]; target FLT3(K663Q); 1 μM): 44 % Ctrl |
| Cc1cc2c([nH]1)/C=C1\C(=O)Nc3cnc(cc31)-c1cnn(C)c1CN(C)CCN(C)C2=O [Ex. 172, [3a(4)Z]-6,9,12,14-tetramethyl-9,10,11,12,13,14-hexahydro-17,1-(azenometheno)pyrazolo[4,3-m]dipyrrolo[3,2-f:3′,4′-i][1,4]diazacyclopentadecine-3,8(2H,5H)-dione] | – | – | – | – | – | – | % Ctrl, ABL1(M351T)-phosphorylated (kinases [1]; 1 μM; target ABL1(M351T)-phosphorylated): 0.4 % Ctrl; % Ctrl, KIT(V559D, T670I) (kinases [2]; 1 μM; target KIT(V559D, T670I)): 48 % Ctrl; % Ctrl, FLT3(D835Y) (kinases [3]; 1 μM; target FLT3(D835Y)): 0.1 % Ctrl; % Ctrl, RET (kinases [4]; 1 μM; target RET): 3.1 % Ctrl; % Ctrl, EGFR(L858R, T790M) (kinases [5]; 1 μM; target EGFR(L858R, T790M)): 3.3 % Ctrl; % Ctrl, FLT3(K663Q) (kinases [6]; 1 μM; target FLT3(K663Q)): 0.6 % Ctrl |
| Cc1cc2c([nH]1)/C=C1\C(=O)Nc3ccc(cc31)-c1c(C)nn(C)c1COCCN(C)C2=O [Ex. 146, [3a(4)Z]-6,9,14,16-tetramethyl-10,11,13,14-tetrahydro-2H-1,17-(ethanediylidene)pyrazolo[4,3-m]dipyrrolo[3,2-f:3′,4′-i][1,4]oxazacyclopentadecine-3,8(5H,9H)-dione] | – | – | – | – | – | – | % Ctrl, ABL1(M351T)-phosphorylated (kinases [1]; [7]): 67 % Ctrl; % Ctrl, KIT(V559D, T670I) (kinases [2]; target KIT(V559D, T670I); 1 μM): 75 % Ctrl; % Ctrl, FLT3(D835Y) (kinases [3]; target FLT3(D835Y); 1 μM): 22 % Ctrl; % Ctrl, RET (kinases [4]; target RET; 1 μM): 45 % Ctrl; % Ctrl, EGFR(L858R, T790M) (kinases [5]; [8]): 43 % Ctrl; % Ctrl, FLT3(K663Q) (kinases [6]; target FLT3(K663Q); 1 μM): 14 % Ctrl |
| Cc1cc2c([nH]1)/C=C1\C(=O)Nc3ccc(cc31)OCCOCCNC2=O [Ex. 129, [16a(17)Z]-2-methyl-6,7,9,10-tetrahydro-1H-12,14-(ethanediylidene)dipyrrolo[3,2-i:3′,4′-l][1,4,7]dioxazacyclopentadecine-4,16(5H,15H)-dione] | 83 | 100 | 9.1 | 100 | 98 | 100 | – |
| Cc1cc2c([nH]1)/C=C1\C(=O)Nc3cc(Cl)c(cc31)OCCO[C@@H](C(=O)N[C@@H]1CCNC1)CN(C)C2=O [Ex. 136, [7R,16a(17)Z]-19-chloro-2,5-dimethyl-4,16-dioxo-N-[(3R)-pyrrolidin-3-yl]-4,5,6,7,9,10,15,16-octahydro-1H-12,14-(ethanediylidene)dipyrrolo[3,2-i:3′,4′-l][1,4,7]dioxazacyclopentadecine-7-carboxamide] | 17 | 3.2 | 2.6 | 23 | 93 | 64 | – |

Second part, led by results:

| % Ctrl, ABL1(M351T)-phosphorylated (kinases [1]; [9]) [% Ctrl] | % Ctrl, KIT(V559D, T670I) (kinases [2]; 1 μM; KIT(V559D, T670I)) [% Ctrl] | % Ctrl, FLT3(D835Y) (kinases [3]; 1 μM; FLT3(D835Y)) [% Ctrl] | % Ctrl, RET (kinases [4]; 1 μM; RET) [% Ctrl] | % Ctrl, EGFR(L858R, T790M) (kinases [5]; 1 μM; EGFR(L858R, T790M)) [% Ctrl] | % Ctrl, FLT3(K663Q) (kinases [6]; 1 μM; FLT3(K663Q)) [% Ctrl] | Structure (SMILES) | also measured |
| --- | --- | --- | --- | --- | --- | --- | --- |
| 98 | 96 | 9.1 | 94 | 97 | 44 | Cc1cc2c([nH]1)/C=C1\C(=O)Nc3ccc(cc31)CN(C)C(=O)COCCNC2=O [Ex.111, [17a(18)Z]-2,11-dimethyl-6,7,11,12-tetrahydro-1H-13,15-(ethanediylidene)dipyrrolo[3,2-f:3′,4′-i][1,4,14]oxadiazacyclohexadecine-4,10,17(5H,9H,16H)-trione] | – |
| 39 | 71 | 22 | 83 | 48 | 77 | Cc1cc2c([nH]1)/C=C1\C(=O)Nc3ccc(cc31)-c1c(noc1C)COCCN(C)C2=O [Ex. 128, [3a(4)Z]-6,9,16-trimethyl-1,11-dihydro-2H,13H-1,17-(ethanediylidene)[1,4]oxazolo[4,3-m]dipyrrolo[3,2-f:3′,4′-i][1,4]oxazacyclopentadecine-3,8(5H,9H)-dione] | – |

From patent US20230257396A1, “MACROCYCLES AND THEIR USE” (BLOSSOMHILL THERAPEUTICS, INC., priority 2020, published 2023)
